19 compounds from patent publication US9227971B2, “Pyrazolo[1,5-a]pyrimidine compounds as mTOR inhibitors” (Merck Sharp & Dohme Corp., priority 2010, dated 2016) can be followed below.

In test [1] the test system is phosphorylated AKT Ser473 (pAKT S473), mTORC2 activity, PC3 cells. The test can be described thus: mTOR target engagement assay, immunofluorescent cell-based, pAKT S473 readout (mTORC2 activity). The method in brief: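 After blocking, cells were stained overnight at 4 °C with anti-pAKT S473 antibody, then a fluorescent secondary; inhibition was read as reduced fluorescence intensity.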

Test [2] has as its system phosphorylated 4E-BP1 Thr37/46 (p4E-BP1 Thr37/46), mTORC1 activity, PC3 cells. The test can be described thus: mTOR target engagement assay, immunofluorescent cell-based, p4E-BP1 Thr37/46 readout (mTORC1 activity). As to conditions: read-out: p4E-BP1 Thr37/46 IC50. The method, boiled down:
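Seed PC3 cells overnight; treat with compound dilutions for ninety minutes at 37° C; fix with glyoxal and block; stain with anti-p4E-BP1 Thr37/46 overnight at 4° C, then fluorescent secondary; read fluorescence and fit IC50 against DMSO-only controls.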

The mark [3] stands for this setting: Homo sapiens, PC-3, PC3 cells, compound treatment ninety minutes at 37° C.
Where [4] appears, read: Homo sapiens, PC-3, Table 3-1, PC3 cells.
The mark [5] stands for this setting: Homo sapiens, PC-3, Table 7-9 (no column head printed; column order as in the neighbouring tables), PC3 cells.

pIC50: −log10 of the molar value. Like-named read-outs stand apart in the source and are kept apart here.

With `CC(=O)c1c([C@@H]2C[C@H]3CC[C@@H](C2)N3C(=O)c2nnc[nH]2)nc2c(-c3ccc(-c4ccn(C)n4)nc3)cnn2c1N` [Compound 1.1.55, 1-(5-((1R,3s,5S)-8-(4H-1,2,4-triazole-3-carbonyl)-8-azabicyclo[3.2.1]octan-3-yl)-7-amino-3-(6-(1-methyl-1H-pyrazol-3-yl)pyridin-3-yl)pyrazolo[1,5-a]pyrimidin-6-yl)ethanone], the pIC50 in test [1] (setting [3]) and in test [2] (setting [3]) was 7.00 to 9.00 throughout.

With “((1R,3s,5S)-3-(7-amino-6-(methylsulfonyl)-3-(6-(5-methylthiazol-2-yl)pyridin-3-yl)pyrazolo[1,5-a]pyrimidin-5-yl)-8-azabicyclo[3.2.1]octan-8-yl)(5-methyl-4H-1,2,4-triazol-3-yl)methanone [Compound 3.183]”, the pIC50 was 6.00 to 7.00 in test [1] (Table 3-1, PC3 cells) and 6.00 to 7.00 in test [2] (Table 3-1, PC3 cells).

Take `Cn1cc(-c2ccc(-c3cnn4c(N)c(S(C)(=O)=O)c([C@@H]5C[C@H]6CC[C@@H](C5)N6C(=O)c5nnc[nH]5)nc34)cn2)cn1` [Compound 3.106, ((1R,3s,5S)-3-(7-amino-3-(6-(1-methyl-1H-pyrazol-4-yl)pyridin-3-yl)-6-(methylsulfonyl)pyrazolo[1,5-a]pyrimidin-5-yl)-8-azabicyclo[3.2.1]octan-8-yl)(4H-1,2,4-triazol-3-yl)methanone]: the pIC50 in test [1] (setting [4]) and in test [2] (setting [4]) was 7.00 to 9.00 throughout.

In the case of `CC(=O)c1c(C2CC3CCC(C2)N3C(=O)c2nnc[nH]2)nc2c(-c3ccc(-c4ccccc4)nc3)cnn2c1N` [Compound 1.1.7, 1-(5-((1R,3s,5S)-8-(1H-1,2,4-triazole-3-carbonyl)-8-azabicyclo[3.2.1]octan-3-yl)-7-amino-3-(6-phenylpyridin-3-yl)pyrazolo[1,5-a]pyrimidin-6-yl)ethanone], the pIC50 in test [1] (setting [3]) and in test [2] (setting [3]) was 7.00 to 9.00 throughout.

As for `CC(=O)c1c([C@@H]2C[C@H]3CC[C@@H](C2)N3C(=O)c2nnc[nH]2)nc2c(-c3ccc(-n4ccc(C)n4)nc3)cnn2c1N` [Compound 1.1.136, 1-(5-((1R,3s,5S)-8-(4H-1,2,4-triazole-3-carbonyl)-8-azabicyclo[3.2.1]octan-3-yl)-7-amino-3-(6-(3-methyl-1H-pyrazol-1-yl)pyridin-3-yl)pyrazolo[1,5-a]pyrimidin-6-yl)ethanone], the results for the pIC50 in test [1] (setting [3]) and in test [2] (setting [3]) were 7.00 to 9.00 and 6.00 to 7.00, respectively.

With `Cc1cnc(-c2ccc(-c3cnn4c(N)c(S(C)(=O)=O)c([C@@H]5C[C@H]6CC[C@@H](C5)N6C(=O)C(N)C(F)(F)F)nc34)cn2)s1` (stereo partly drawn) [Compound 3.188, 2-amino-1-((1R,3s,5S)-3-(7-amino-6-(methylsulfonyl)-3-(6-(5-methylthiazol-2-yl)pyridin-3-yl)pyrazolo[1,5-a]pyrimidin-5-yl)-8-azabicyclo[3.2.1]octan-8-yl)-3,3,3-trifluoropropan-1-one], the pIC50 in test [1] (setting [4]) and in test [2] (setting [4]) was 5.00 to 6.00 throughout.

As to `Cn1ccc(-c2ccc(-c3cnn4c(N)c(S(C)(=O)=O)c([C@@H]5C[C@H]6CC[C@@H](C5)N6C(=O)c5nnc[nH]5)nc34)c[n+]2[O-])n1` [Compound 3.41, 5-(5-((1R,3s,5S)-8-(4H-1,2,4-triazole-3-carbonyl)-8-azabicyclo[3.2.1]octan-3-yl)-7-amino-6-(methylsulfonyl)pyrazolo[1,5-a]pyrimidin-3-yl)-2-(1-methyl-1H-pyrazol-3-yl)pyridine 1-oxide], the pIC50 in test [1] (setting [4]) is 7.00 to 9.00; in test [2] (setting [4]), 6.00 to 7.00.

With `CC(=O)c1c([C@@H]2C[C@H]3CC[C@@H](C2)N3C(N)=O)nc2c(-c3ccc(-c4ccccc4F)nc3)cnn2c1N` [Compound 1.1.174, (1R,3s,5S)-3-(6-acetyl-7-amino-3-(6-(2-fluorophenyl)pyridin-3-yl)pyrazolo[1,5-a]pyrimidin-5-yl)-8-azabicyclo[3.2.1]octane-8-carboxamide], the pIC50 in test [1] (setting [3]) and in test [2] (setting [3]) was 7.00 to 9.00 each time.

For `CC(=O)c1c([C@@H]2C[C@H]3CC[C@@H](C2)N3C(=O)c2nnc[nH]2)nc2c(-c3ccc(-c4ccccc4F)nc3)cnn2c1N` [Compound 1.1.145, 1-(5-((1R,3s,5S)-8-(4H-1,2,4-triazole-3-carbonyl)-8-azabicyclo[3.2.1]octan-3-yl)-7-amino-3-(6-(2-fluorophenyl)pyridin-3-yl)pyrazolo[1,5-a]pyrimidin-6-yl)ethanone], the pIC50 in test [1] (setting [3]) and in test [2] (setting [3]) was 7.00 to 9.00 in each case.

Turning to `N#Cc1c([C@@H]2C[C@H]3CC[C@@H](C2)N3C(=O)CO)nc2c(-c3ccc(-c4ccccc4)nc3)cnn2c1N` [Compound 5.1, 7-amino-5-((1R,3s,5S)-8-(2-hydroxyacetyl)-8-azabicyclo[3.2.1]octan-3-yl)-3-(6-phenylpyridin-3-yl)pyrazolo[1,5-a]pyrimidine-6-carbonitrile], the pIC50 in test [1] (setting [3]) is 7.00 to 9.00; in test [2] (setting [3]), 6.00 to 7.00.

Turning to `COc1ccc(-c2ccc(-c3cnn4c(N)c(S(C)(=O)=O)c([C@@H]5C[C@H]6CC[C@@H](C5)N6C(=O)c5nnc[nH]5)nc34)cn2)cc1F` [Compound 3.37, ((1R,3s,5S)-3-(7-amino-3-(6-(3-fluoro-4-methoxyphenyl)pyridin-3-yl)-6-(methylsulfonyl)pyrazolo[1,5-a]pyrimidin-5-yl)-8-azabicyclo[3.2.1]octan-8-yl)(4H-1,2,4-triazol-3-yl)methanone], the pIC50 in test [1] (setting [4]) and in test [2] (setting [4]) was 7.00 to 9.00 each time.

On to `Cn1cc2cc(-c3ccc(-c4cnn5c(N)c(S(C)(=O)=O)c([C@@H]6C[C@H]7CC[C@@H](C6)N7C(=O)c6nnc[nH]6)nc45)cn3)ccc2n1` [Compound 3.57, ((1R,3s,5S)-3-(7-amino-3-(6-(2-methyl-2H-indazol-5-yl)pyridin-3-yl)-6-(methylsulfonyl)pyrazolo[1,5-a]pyrimidin-5-yl)-8-azabicyclo[3.2.1]octan-8-yl)(4H-1,2,4-triazol-3-yl)methanone], for which the pIC50 in test [1] (Table 3-1, PC3 cells) is 7.00 to 9.00; in test [2] (Table 3-1, PC3 cells), 7.00 to 9.00.

On to `CC(=O)c1c([C@@H]2C[C@H]3CC[C@@H](C2)N3C(=O)c2nnc[nH]2)nc2c(-c3ccc(C(O)CO)nc3)cnn2c1N` (stereo partly drawn) [Compound 7.52, 1-(5-((1R,3s,5S)-8-(4H-1,2,4-triazole-3-carbonyl)-8-azabicyclo[3.2.1]octan-3-yl)-7-amino-3-(6-(1,2-dihydroxyethyl)pyridin-3-yl)pyrazolo[1,5-a]pyrimidin-6-yl)ethanone], for which the pIC50 in test [1] (setting [5]) and in test [2] (setting [5]) was 5.00 to 6.00 each time.

Consider `Nc1c(C2CC2)c([C@@H]2C[C@H]3CC[C@@H](C2)N3C(=O)c2nnc[nH]2)nc2c(-c3cnn(-c4ccccc4)c3)cnn12` [Compound 4.26, ((1R,3s,5S)-3-(7-amino-6-cyclopropyl-3-(1-phenyl-1H-pyrazol-4-yl)pyrazolo[1,5-a]pyrimidin-5-yl)-8-azabicyclo[3.2.1]octan-8-yl)(4H-1,2,4-triazol-3-yl)methanone], for which the values for the pIC50 in test [1] (setting [3]) and in test [2] (setting [3]) were 7.00 to 9.00 and 6.00 to 7.00, respectively.

Regarding `CS(=O)(=O)c1c([C@@H]2C[C@H]3CC[C@@H](C2)N3C(=N)NO)nc2c(-c3ccc(-c4ccccc4)nc3)cnn2c1N` [Compound 8.72, (1R,3s,5S)-3-(7-amino-6-(methylsulfonyl)-3-(6-phenylpyridin-3-yl)pyrazolo[1,5-a]pyrimidin-5-yl)-N-hydroxy-8-azabicyclo[3.2.1]octane-8-carboximidamide], the pIC50 in test [1] (PC3 cells) and in test [2] (PC3 cells) was 5.00 to 6.00 throughout.

Take `CS(=O)(=O)c1c([C@@H]2C[C@H]3CC[C@@H](C2)N3C(=O)c2nnc[nH]2)nc2c(-c3ccc(-c4c(F)cccc4F)nc3)cnn2c1N` [Compound 3.107, ((1R,3s,5S)-3-(7-amino-3-(6-(2,6-difluorophenyl)pyridin-3-yl)-6-(methylsulfonyl)pyrazolo[1,5-a]pyrimidin-5-yl)-8-azabicyclo[3.2.1]octan-8-yl)(4H-1,2,4-triazol-3-yl)methanone]: the pIC50 in test [1] (setting [4]) and in test [2] (setting [4]) was 7.00 to 9.00 throughout.

Turning to `CC(=O)Nc1nc(C(=O)N2[C@@H]3CC[C@H]2C[C@H](c2nc4c(-c5ccc(-c6ccccc6)nc5)cnn4c(N)c2C(C)=O)C3)n[nH]1` [Compound 1.1.142, N-(3-((1R,3s,5S)-3-(6-acetyl-7-amino-3-(6-phenylpyridin-3-yl)pyrazolo[1,5-a]pyrimidin-5-yl)-8-azabicyclo[3.2.1]octane-8-carbonyl)-1H-1,2,4-triazol-5-yl)acetamide], the pIC50 in test [1] (setting [3]) and in test [2] (setting [3]) was 6.00 to 7.00 in each case.

Take `COc1ccc(-c2ccc(-c3cnn4c(N)c(C5CC5)c([C@@H]5C[C@H]6CC[C@@H](C5)N6C(=O)c5nnc[nH]5)nc34)cn2)cc1F` [Compound 4.9, ((1R,3s,5S)-3-(7-amino-6-cyclopropyl-3-(6-(3-fluoro-4-methoxyphenyl)pyridin-3-yl)pyrazolo[1,5-a]pyrimidin-5-yl)-8-azabicyclo[3.2.1]octan-8-yl)(4H-1,2,4-triazol-3-yl)methanone]: the pIC50 in test [1] (setting [3]) was 7.00 to 9.00; in test [2] (setting [3]) it was 6.00 to 7.00.

For the compound `Nc1c(C2CC2)c([C@@H]2C[C@H]3CC[C@@H](C2)N3C(=O)c2nnc[nH]2)nc2c(-c3ccc(-c4ccc(OC(F)F)cc4)nc3)cnn12` [Compound 4.15, ((1R,3s,5S)-3-(7-amino-6-cyclopropyl-3-(6-(4-(difluoromethoxy)phenyl)pyridin-3-yl)pyrazolo[1,5-a]pyrimidin-5-yl)-8-azabicyclo[3.2.1]octan-8-yl)(4H-1,2,4-triazol-3-yl)methanone], the pIC50 in test [1] (setting [3]) and in test [2] (setting [3]) was 6.00 to 7.00 throughout.
